Test results published in patent US20250059191A1, “CRYSTALLINE FORMS OF DIAZABICYCLOOCTANE DERIVATIVE AND PRODUCTION PROCESS THEREOF” (MEIJI SEIKA PHARMA CO., LTD., priority 2013, published 2025).
Each block holds one compound with its values, some of them ahead of it.

Assays:
Format in all cases: physicochemical
[1] = Stability test of amorphous form and crystalline forms I-IV, 40° C./75% RH, airtight container
Procedure: Crystalline form III of Example 7a were dissolved in water and subjected to lyophilisation to afford (2S,5R)-N-(2-aminoethoxy)-7-oxo-6-(sulfooxy)-1,6-diazabicyclo[3.2.1]octane-2-carboxamide (VII-1) in an amorphous form. The compounds in an amorphous form and crystalline forms I-IV of Examples 5-8 were each weighed in a screw bottle, and stability tests were conducted at each of the temperatures and humidity conditions. The methods of measurement of related substances, content measurement, and water content measurement were as follows.
(§1) Samples were dissolved in water, and these solutions were used as sample solutions. The sample solutions each in the amount of 5 μL were tested under the following conditions by JP16, Liquid Chromatography <2.01>to obtain the amount of each related substance (%) and the total amount of related substances (%), and the content.
(§2) • Column: Waters Atlantis dc18, 5 μm, 4.6×250 mm • Column temperature: a constant temperature of about 35° C. • Injected amount: 5 μL • Detector: an ultraviolet absorption photometer (wavelength: 210 nm) • Mobile phase A: 1.32 g of diammonium hydrogenphosphate was dissolved in 900 mL of water, and phosphoric acid was added to adjust the pH to 3.0. To this was then added water to make 1000 mL. • Mobile phase B: Acetonitrile for liquid chromatography • Gradient program: The mixing ratio of mobile phase A to mobile phase B was controlled as the following time program.
(§3) About 20 mg of the product was precisely measured and tested by JP16, Water Determination <2.48>Coulometric titration.

[2] = Solubility in aqueous isopropanol solution
Excerpt: Crystalline forms I, II and III are distinguished by DSC, solubility in aqueous isopropanol, and lattice spacing in powder X-ray diffraction patterns. […]

[3] = Experiment on crystal transformation (powder X-ray diffraction after stirring suspension or storage)
Procedure: (§4) Crystal transformation in the polymorphism of the compound represented by Formula (VII-1) obtained in the present invention are not observed in a stability test carried out at 40° C. in the solid state or in stirring the suspension in a hydrous solvent for a long time. When crystalline form III of the compound represented by Formula (VII-1) was subjected to an XRD-DSC experiment, heated to 160° C. at 60% RH, and then allowed to cool on standing to 63° C., the crystalline form changed to anhydrous crystalline form over about 145° C., and then returned to the crystalline form III below about 90° C. after cooling. On the basis of these findings, a crystalline form of a compound represented by Formula (VII-1), particularly the crystalline form III constitutes a stable form under ordinary conditions.
A small amount of a suspension of the crystals of Example 6a was taken and stirred at room temperature for one day. The precipitated crystals were collected and subjected to powder X-ray crystal diffraction.
In the step of Example 7a, a small amount was taken out of the suspension immediately after the seeding and of the suspension after the dropwise addition of isopropanol, and each of the taken-out portions was stirred with a stirring bar at room temperature for one day and four days. The precipitated crystals were collected and subjected to powder X-ray crystals diffraction.
Crystalline form IV of Examples 8a-c was taken and isopropanol/water (6/1) was added thereto and suspended and stirred at 25° C. or 40° C. for one week. Samples were taken after 12 hours, 24 hours (one day), 48 hours (two days), 72 hours (three days), 96 hours (four days) and 168 hours (one week), and subjected to powder X-ray crystal diffraction after through-flow drying.

[4] = Stability of crystalline form III in a packaging container; conditions: polyethylene bag/aluminium laminated bag
Procedure: as §1, §2, §3
Crystalline form III was packaged under the following conditions and stability tests were conducted at each of the temperatures and humidity conditions under analysis conditions of Example 9a. The results are shown in Tables 10-12. • Packaging container • Inner bag: a low-density polyethylene·nylon tie band • Outer bag: an aluminium laminated bag·heat sealed

[5] = XRD-DSC experiment on crystalline form III (crystal transformation by heating)
Procedure: as §4
Crystal transformation by heating in polymorphism of crystalline form III of Example 7a was examined using XRD-DSC. Heating and cooling conditions were as follows: the temperature was elevated at a rate of 2° C./min from room temperature to 160° C. and then cooled to 63° C. under a constant relative humidity (RH) of 60%. DSC and XRD of the samples were successively measured. […]

[6] = 60° C., 4 weeks (text: 1 month)

Content ([1]; 1 month): 93.3%
Total amount of related substances ([1]; 1 month): 6.6%
Water content ([1]; 1 month): 3.3%
Content ([1]; 3 months): 87.5%
Total amount of related substances ([1]; 3 months): 12.3%
Water content ([1]; 3 months): 3.8%
Content ([1]; at start): 99.4%
Total amount of related substances ([1]; at start): 0.5%
Water content ([1]; at start): 1.3%
Structure (SMILES): NCCONC(=O)[C@@H]1CC[C@@H]2CN1C(=O)N2OS(=O)(=O)O [Amorphous form, (2S,5R)-N-(2-aminoethoxy)-7-oxo-6-(sulfooxy)-1,6-diazabicyclo[3.2.1]octane-2-carboxamide]

Content ([1]; 1 month): 99.9%
Total amount of related substances ([1]; 1 month): 0.0%
Water content ([1]; 1 month): 5.4%
Content ([1]; 1 month, listed as Form I): 99.9%
Total amount of related substances ([1]; 1 month, listed as Form I): 0.0%
Water content ([1]; 1 month, listed as Form I): 5.4%
Content ([1]; 3 months): 99.8%
Total amount of related substances ([1]; 3 months): 0.1%
Water content ([1]; 3 months): 5.6%
Content ([1]; 3 months, listed as Form I): 99.8%
Total amount of related substances ([1]; 3 months, listed as Form I): 0.1%
Water content ([1]; 3 months, listed as Form I): 5.6%
Content ([1]; at start): 99.9%
Total amount of related substances ([1]; at start): 0.1%
Water content ([1]; at start): 5.4%
Content ([1]; at start, listed as Form I): 99.9%
Total amount of related substances ([1]; at start, listed as Form I): 0.1%
Water content ([1]; at start, listed as Form I): 5.4%
Solubility in aqueous isopropanol, comparison of crystalline forms I, II and III [2]: lowest solubility
Solubility in an aqueous 60% isopropanol solution ([2]; 10° C.): 0.44%
Solubility in an aqueous 60% isopropanol solution ([2]; 20° C.): 0.48%
Structure (SMILES): NCCONC(=O)[C@@H]1CC[C@@H]2CN1C(=O)N2OS(=O)(=O)O [Crystalline form I, (2S,5R)-N-(2-aminoethoxy)-7-oxo-6-(sulfooxy)-1,6-diazabicyclo[3.2.1]octane-2-carboxamide]

Content ([1]; 1 month): 99.8%
Total amount of related substances ([1]; 1 month): 0.0%
Water content ([1]; 1 month): 5.6%
Content ([1]; 1 month, listed as Form II): 99.8%
Total amount of related substances ([1]; 1 month, listed as Form II): 0.0%
Water content ([1]; 1 month, listed as Form II): 5.6%
Content ([1]; 3 months): 99.3%
Total amount of related substances ([1]; 3 months): 0.5%
Water content ([1]; 3 months): 5.9%
Content ([1]; 3 months, listed as Form II): 99.3%
Total amount of related substances ([1]; 3 months, listed as Form II): 0.5%
Water content ([1]; 3 months, listed as Form II): 5.9%
Content ([1]; at start): 99.8%
Total amount of related substances ([1]; at start): 0.1%
Water content ([1]; at start): 5.7%
Content ([1]; at start, listed as Form II): 99.8%
Total amount of related substances ([1]; at start, listed as Form II): 0.1%
Water content ([1]; at start, listed as Form II): 5.7%
Solubility in an aqueous 60% isopropanol solution ([2]; 10° C.): 0.67%
Solubility in an aqueous 60% isopropanol solution ([2]; 20° C.): 0.74%
Structure (SMILES): NCCONC(=O)[C@@H]1CC[C@@H]2CN1C(=O)N2OS(=O)(=O)O [Crystalline form II, (2S,5R)-N-(2-aminoethoxy)-7-oxo-6-(sulfooxy)-1,6-diazabicyclo[3.2.1]octane-2-carboxamide]
Crystal transformation to a different crystal form ([3]; suspension of the crystals stirred at room temperature for one day, powder X-ray diffraction): No crystal transformation to a different crystal form was observed

Content ([1]; 1 month): 100.0%
Total amount of related substances ([1]; 1 month): 0.0%
Water content ([1]; 1 month): 5.3%
Content ([1]; 1 month, listed as Form III): 100.0%
Total amount of related substances ([1]; 1 month, listed as Form III): 0.0%
Water content ([1]; 1 month, listed as Form III): 5.3%
Content ([1]; 3 months): 99.9%
Total amount of related substances ([1]; 3 months): 0.0%
Water content ([1]; 3 months): 5.5%
Content ([1]; 3 months, listed as Form III): 99.9%
Total amount of related substances ([1]; 3 months, listed as Form III): 0.0%
Water content ([1]; 3 months, listed as Form III): 5.5%
Content ([1]; at start): 99.9%
Total amount of related substances ([1]; at start): 0.0%
Water content ([1]; at start): 5.3%
Content ([1]; at start, listed as Form III): 99.9%
Total amount of related substances ([1]; at start, listed as Form III): 0.0%
Water content ([1]; at start, listed as Form III): 5.3%
Content ([4]; 25° C./60% RH, 3 months): 99.9%
Total amount of related substances ([4]; 25° C./60% RH, 3 months): 0.07%
Water content ([4]; 25° C./60% RH, 3 months): 5.23%
Content ([4]; 25° C./60% RH, at start): 99.9%
Total amount of related substances ([4]; 25° C./60% RH, at start): 0.09%
Water content ([4]; 25° C./60% RH, at start): 5.32%
Content ([4]; 40° C./75% RH, 1 month): 99.9%
Total amount of related substances ([4]; 40° C./75% RH, 1 month): 0.07%
Water content ([4]; 40° C./75% RH, 1 month): 5.51%
Content ([4]; 40° C./75% RH, 2 months): 99.9%
Total amount of related substances ([4]; 40° C./75% RH, 2 months): 0.04%
Water content ([4]; 40° C./75% RH, 2 months): 5.27%
Content ([4]; 40° C./75% RH, 3 months): 99.9%
Total amount of related substances ([4]; 40° C./75% RH, 3 months): 0.06%
Water content ([4]; 40° C./75% RH, 3 months): 5.29%
Content ([4]; 40° C./75% RH, at start): 99.9%
Total amount of related substances ([4]; 40° C./75% RH, at start): 0.09%
Water content ([4]; 40° C./75% RH, at start): 5.20%
Content ([4]; 60° C., 2 weeks): 99.9%
Total amount of related substances ([4]; 60° C., 2 weeks): 0.02%
Water content ([4]; 60° C., 2 weeks): 5.20%
Content [4, 6]: 99.9%
Total amount of related substances [4, 6]: 0.04%
Water content [4, 6]: 5.08%
Content ([4]; 60° C., at start): 99.9%
Total amount of related substances ([4]; 60° C., at start): 0.09%
Water content ([4]; 60° C., at start): 5.20%
Solubility in an aqueous 60% isopropanol solution ([2]; 10° C.): 0.76%
Solubility in an aqueous 60% isopropanol solution ([2]; 20° C.): 0.80%
Temperature at which it returned to the crystalline form III after cooling ([5]; allowed to cool to 63° C. at 60% RH): below 90 °C
Temperature at which the crystalline form changed to anhydrous crystalline form ([5]; heated to 160° C. at 60% RH): over 145 °C
Structure (SMILES): NCCONC(=O)[C@@H]1CC[C@@H]2CN1C(=O)N2OS(=O)(=O)O [Crystalline form III, (2S,5R)-N-(2-aminoethoxy)-7-oxo-6-(sulfooxy)-1,6-diazabicyclo[3.2.1]octane-2-carboxamide]
Crystal transformation to a different crystal form ([3]; suspensions after seeding and after isopropanol addition, stirred at room temperature for one day and four days): No crystal transformation to a different crystal form was observed

Content ([1]; 1 month): 99.8%
Total amount of related substances ([1]; 1 month): 0.0%
Water content ([1]; 1 month): 0.1%
Content ([1]; 1 month, listed as Form IV): 99.8%
Total amount of related substances ([1]; 1 month, listed as Form IV): 0.0%
Water content ([1]; 1 month, listed as Form IV): 0.1%
Content ([1]; at start): 99.9%
Total amount of related substances ([1]; at start): 0.0%
Water content ([1]; at start): 0.1%
Content ([1]; at start, listed as Form IV): 99.9%
Total amount of related substances ([1]; at start, listed as Form IV): 0.0%
Water content ([1]; at start, listed as Form IV): 0.1%
Structure (SMILES): NCCONC(=O)[C@@H]1CC[C@@H]2CN1C(=O)N2OS(=O)(=O)O [Crystalline form IV, (2S,5R)-N-(2-aminoethoxy)-7-oxo-6-(sulfooxy)-1,6-diazabicyclo[3.2.1]octane-2-carboxamide]
Crystal transformation to a different crystal form ([3]; suspended in isopropanol/water (6/1), stirred at 25° C. or 40° C., 12 hours to one week): No crystal transformation to a different crystal form was observed
